Measurements taken from PubChem BioAssay AID1996.
≈ marks a conversion by molar mass, not a printed value.

Settings: buffer; pH 7.4; 200.0 µM
Molecule `CCN(C(=O)COC(=O)c1ccccc1O)c1cccc2ccccc12` has a solubility kinetic of 3.5 µg/mL (≈ 10 µM). For `CCn1c(=O)c(C(=O)Nc2ccc(C)cc2)c(O)c2ccccc21`, the solubility kinetic was < 0.3 µg/mL. `Cc1nc2ccccc2n1CC(O)c1ccccc1` (stereo not given) showed a solubility kinetic of 33.9 µg/mL (≈ 134 µM). For `COc1ccc(-n2ncc3c(=O)n(CC(C)=O)cnc32)cc1`, the solubility kinetic was > 44.7 µg/mL. For `CCOC(=O)C1=NNC2(CC(=O)N(c3cccc(C)c3)C2=O)C1` (stereo not given), the solubility kinetic was > 47.3 µg/mL. Molecule `Cc1ccccc1-c1noc(CNC(=O)COc2ccccc2)n1` has a solubility kinetic of 7.7 µg/mL (≈ 23.8 µM). With `O=c1[nH]c2ccc(S(=O)(=O)Nc3ccc(Cl)cc3)cc2o1` the solubility kinetic was > 48.7 µg/mL. With `CCNC(=O)c1ccccc1-c1nc(-c2ccccc2)no1` the solubility kinetic was 35.4 µg/mL (≈ 121 µM). For `CCS(=O)(=O)CCn1c([N+](=O)[O-])cnc1C`, the solubility kinetic was > 37.1 µg/mL. `COc1cccc(C(=O)OCC(=O)NCCCc2ccccc2)c1` gave a solubility kinetic of 12.1 µg/mL (≈ 37 µM). For `CCOc1ccccc1C(=O)NCC(=O)N1CCC(C)CC1`, the solubility kinetic was > 45.7 µg/mL. With `Cc1ccccc1CC(=O)NC1CCN(C)CC1` the solubility kinetic was > 37 µg/mL. `COc1ccc(NC(=O)CN(C)CC(=O)NC2CCCCC2C)cc1` (stereo not given) gave a solubility kinetic of 50.2 µg/mL (≈ 144 µM). For `Cc1cccc(N=C2CSC(=O)N2)c1`, the solubility kinetic was > 30.9 µg/mL. Work on `O=C1NC(=Nc2ccccc2)SC1Cc1ccccc1` (stereo not given) yielded a solubility kinetic of 4.6 µg/mL (≈ 16.3 µM). Molecule `N#CC1=C(N)Oc2cc(O)c(Cl)cc2C1c1cccnc1` (stereo not given) has a solubility kinetic of 11.2 µg/mL (≈ 37.4 µM). For `Cc1ccc([N+](=O)[O-])c(OCC(O)CNC(C)(C)C)c1.Cl` (stereo not given), the solubility kinetic was > 47.8 µg/mL. Work on `C/C(=C/c1ccccc1)C(=O)N1CCN(c2ccccc2)CC1` yielded a solubility kinetic of 37.1 µg/mL (≈ 121 µM). With `CC(=O)N1CC(=O)Nc2ccc(Cl)cc2C1c1ccccc1` (stereo not given) the solubility kinetic was > 47.2 µg/mL. `O=S(=O)(Nc1ccc(-c2nc3cccnc3s2)cc1)c1ccccc1F` gave a solubility kinetic of 0.8 µg/mL (≈ 2.08 µM). For `CN=C(C)/C(C(=O)OC)=C(/O)c1ccc(Cl)cc1Cl`, the solubility kinetic was 34 µg/mL (≈ 113 µM). In the case of `Cc1ccnc(N(C(=O)Nc2ccccc2)C2=NCC(C)(C)S2)c1`, the solubility kinetic is reported as 25.3 µg/mL (≈ 74.3 µM). With `CC(C)CC(=O)NC(=S)Nc1ccccc1N1CCCC1` the solubility kinetic was 4 µg/mL (≈ 13.1 µM). In the case of `O=C(NCC1CCCO1)c1cncc(Br)c1` (stereo not given), the solubility kinetic is reported as > 42.8 µg/mL. For `Cc1ccc(NCc2ccco2)cc1C.O=C(O)C(=O)O`, the solubility kinetic was 4.7 µg/mL. Work on `CC(=O)c1cccc(NC(=O)CCC(=O)c2ccc(F)cc2)c1` yielded a solubility kinetic of 3.8 µg/mL (≈ 12.1 µM). With `CC(CC(=O)O)CC(=O)Nc1cccc([N+](=O)[O-])c1` (stereo not given) the solubility kinetic was > 39.9 µg/mL. For `N#CCN1CCN(CC(=O)c2ccc(Br)cc2)CC1`, the solubility kinetic was 47.3 µg/mL (≈ 147 µM). For `N#C/C(=C\Nc1ccc(Cl)cn1)S(=O)(=O)c1ccccc1`, the solubility kinetic was < 0.2 µg/mL. In the case of `O=C(Nc1cccc(NC(=O)c2ccco2)n1)c1ccco1`, the solubility kinetic is reported as 6.1 µg/mL (≈ 20.5 µM). In the case of `O=C(CSc1nc2ccccc2c(=O)n1CCCN1CCOCC1)Nc1ccc(Br)cc1`, the solubility kinetic is reported as 5.3 µg/mL (≈ 10.2 µM). In the case of `O=C(NCCNC(=O)c1cc(Cl)ccc1Cl)c1ccco1`, the solubility kinetic is reported as 46.6 µg/mL (≈ 142 µM). For `CCc1cc(=O)[nH]c(SCCc2ccccc2)n1`, the solubility kinetic was > 39.1 µg/mL. In the case of `Cc1ccc(N2C(=O)[C@@H]3C(c4cccnc4)=NO[C@@H]3C2=O)c(C)c1`, the solubility kinetic is reported as > 48.2 µg/mL. For `COc1ccc(CNC(=O)N[C@H](C(=O)O)C(C)C)cc1OC`, the solubility kinetic was > 46.6 µg/mL. For `COc1cc(C(=O)OCC(=O)N2CCCC2)cc2c1OCCO2`, the solubility kinetic was > 48.2 µg/mL. For `Cc1nccn1CC(=O)N/N=C/c1cc(Br)cs1`, the solubility kinetic was > 49.1 µg/mL. With `Cn1cnnc1SCC(=O)Nc1ncc([N+](=O)[O-])s1` the solubility kinetic was > 45 µg/mL. Work on `CC1(C)Cc2ccccc2-c2nc(NCCCO)[nH]c(=O)c21` yielded a solubility kinetic of 39.5 µg/mL (≈ 132 µM). With `CSC1=N/C(=C/c2cccnc2)C(=O)N1Cc1ccccc1` the solubility kinetic was 5.2 µg/mL (≈ 16.8 µM). Molecule `Cc1ccc(NS(=O)(=O)c2ccc3c(c2)oc(=O)n3C)cc1` has a solubility kinetic of 1.6 µg/mL (≈ 5.03 µM). For `O=C(c1ccc(S(=O)(=O)Nc2ccccc2F)cc1)N1CCN(c2ccccn2)CC1`, the solubility kinetic was > 66.1 µg/mL. In the case of `COc1ccc(C2=NC(C)(C)Cc3cc(OC)c(OC)cc32)cc1`, the solubility kinetic is reported as > 48.8 µg/mL. In the case of `COc1cc([N+](=O)[O-])ccc1NC(=O)CSc1nccn1C`, the solubility kinetic is reported as 42.5 µg/mL (≈ 132 µM). In the case of `S=C(NCc1ccccc1)N1CCN(C2CCCCC2)CC1`, the solubility kinetic is reported as > 47.6 µg/mL. With `CCCNC(=S)N1CCC(C(=O)c2ccc(F)cc2)CC1` the solubility kinetic was > 46.3 µg/mL. `COc1cc(CN2CCCN(C)CC2)cc([N+](=O)[O-])c1O` gave a solubility kinetic of 33.9 µg/mL (≈ 115 µM). In the case of `O=C(O)CCCN1C(=O)c2ccccc2Sc2ncccc21`, the solubility kinetic is reported as > 47.2 µg/mL. With `CC(C)CNC(=O)CN1c2cccc3cccc(c23)S1(=O)=O` the solubility kinetic was > 47.8 µg/mL. In the case of `CSc1nccc(-c2sc(SC)c(C#N)c2-c2ccccc2)n1`, the solubility kinetic is reported as < 0.3 µg/mL. With `CC(CCc1ccc(O)cc1)NC1c2ccccc2-c2ccccc21` (stereo not given) the solubility kinetic was 26.1 µg/mL (≈ 79.2 µM). `Cc1nc([N+](=O)[O-])cn1CC(=O)c1ccc(Cl)cc1` gave a solubility kinetic of 3.7 µg/mL (≈ 13.2 µM). With `Nc1ccnc(=O)[nH]1` the solubility kinetic was > 16.7 µg/mL. For `O=C(NCC1CCCCC1)c1ccc(=O)[nH]c1`, the solubility kinetic was > 35.1 µg/mL. With `CN1CCN(S(=O)(=O)c2ccccc2)CC1` the solubility kinetic was 34.6 µg/mL (≈ 144 µM). With `COc1ccc(NC(=S)NC2CC3CCCC(C2)N3C2CC2)cc1` (stereo not given) the solubility kinetic was > 51.8 µg/mL. For `CC(C)OP(=O)(O)NC(=O)c1ccccc1`, the solubility kinetic was > 36.5 µg/mL. In the case of `COc1ccc(CNC(=O)CCN2C(=S)NC(C)(C)CC2C)cc1` (stereo not given), the solubility kinetic is reported as > 52.4 µg/mL. Work on `CCOC(=O)/C(C#N)=C1\C(=O)N(Cc2ccccc2)c2ccccc21` yielded a solubility kinetic of 1.3 µg/mL (≈ 3.91 µM). With `Cc1cc(C(=O)CN2C(=O)NC3(CCCCC3)C2=O)c(C)n1C` the solubility kinetic was 19 µg/mL (≈ 59.9 µM).
